Measured values published in patent publication US20230000848A1, “METHODS OF TREATING NASH” (Gilead Sciences, Inc., priority 2021, published 2023).

How the values were obtained:
[1] = system: Choline Deficient High Fat Diet (CDHFD) model of fatty liver; assay: Picrosirius red staining (PSR) of liver tissue, rat choline deficient high fat diet (CDHFD) model; format: in vivo, Male Wistar Han Rats; details: for fibrosis as measured by PSR, decrease relative to vehicle: vs vehicle group 2
Method: Compound A and Compound B were studied in a Choline Deficient High Fat Diet (CDHFD) model as described below. Rats enrolled in this study were first fed a choline deficient high fat diet (CDHFD) for 42 days prior to test article administration Animals were then split into treatment groups 1-8 and test article was administered as detailed in Table 1 for 42 days. [table] Liver tissue obtained at the end of the study was subjected to picrosirius red staining (PSR) was assessed according to standard techniques. Liver hydroxyproline content was measured from cryopowdered liver tissue. Chloramine-T was used to oxidize the free hydroxyproline for the production of a pyrrole. Addition of Ehrlich's reagent results in the formation of a chromophore that can be measured at 550 nm on a spectramax plate reader. FIG. 2 plots the PSR (% area) for control (treatment group 1), start and end for the vehicle (treatment group 2), COT inhibitor (Compound A referred to as TPL2i, 100 mg/Kg QD (low dose), 100 mg/Kg BID (high dose)), ACC inhibitor (Compound B referred to as ACCi, 10 mg/kg QD), and coadministration of Compound B with Compound A (treatment groups 5 and 6). Data in FIG. 2 is based on all animals in the treatment group. In FIG. 2, a higher value for PSR % area is reflective of a higher level of fibrosis.

liver cytokine levels [2] = assay: Liver cytokine levels by ELISA from liver lysates, GAN mouse model; format: in vivo, mice
Method: (§1) The effect of COT inhibitor Compound A, ACC inhibitor Compound B, Cenicriviroc (CVC), and the combination of Compound A and Compound B in the Gubra amylin NASH mouse model (GAN) was determined.

[3] = system: Choline Deficient High Fat Diet (CDHFD) model of fatty liver; assay: Liver hydroxyproline (OH-P) content, rat CDHFD model; format: in vivo, Male Wistar Han Rats; details: 100 mg/Kg PO BID (treatment group 4), 42 days, vs vehicle group 2
Method: (§2) Compound A and Compound B were studied in a Choline Deficient High Fat Diet (CDHFD) model as described below. Rats enrolled in this study were first fed a choline deficient high fat diet (CDHFD) for 42 days prior to test article administration Animals were then split into treatment groups 1-8 and test article was administered as detailed in Table 1 for 42 days.
Liver tissue obtained at the end of the study was subjected to picrosirius red staining (PSR) was assessed according to standard techniques. Liver hydroxyproline content was measured from cryopowdered liver tissue. Chloramine-T was used to oxidize the free hydroxyproline for the production of a pyrrole. Addition of Ehrlich's reagent results in the formation of a chromophore that can be measured at 550 nm on a spectramax plate reader.
FIG. 3 plots liver hydroxyproline (OH—P) content from liver tissue for control (treatment group 1), start and end for the vehicle (treatment group 2), COT inhibitor (Compound A referred to as TPL2i, low dose=100 mg/Kg QD, high dose=100 mg/Kg BID), ACC inhibitor (Compound B referred to as ACCi, 10 mg/kg QD), and coadministration of Compound B with Compound A (treatment group 5 (TPL2i low dose+ACCi) and treatment group 6 (TPL2i high dose+ACCi)). Liver hydroxyproline (OH—P) content was calculated from liver tissue samples. […]

liver cytokine levels [4] = assay: Liver cytokine levels by ELISA from liver lysates, rat CDHFD model; format: in vivo, Male Wistar Han Rats; details: TPL2i = group 4, TPL2i+ACCi = group 6, vs vehicle
Method: as §2

[5] = Body weight, Gubra amylin NASH (GAN) mouse model; format: in vivo, mice; details: 60 mg/kg PO BID, after 84 days of dosing
Method: as §1
FIG. 5 plots the body weight of treatment group 1 (wt), vehicle (treatment group 2), COT inhibitor (Compound A, 60 mg/kg BID), ACC inhibitor (Compound B, 10 mg/Kg QD), and combination of Compound A and Compound B (treatment group 4) in the Gubra amylin NASH (GAN) mouse model. Cenicriviroc (CVC) used as a control (100 mg/Kg QD).

[6] = Whole body fat mass by ECHO MRI, GAN mouse model; format: in vivo, mice; details: 60 mg/kg PO BID, after 84 days of dosing
Method: as §1
FIG. 6 plots the percent fat mass of treatment group 1 (wt), vehicle (treatment group 2), COT inhibitor (Compound A, treatment group 3), ACC inhibitor (Compound B, treatment group 5), and combination of Compound A and Compound B (treatment group 4) in the Gubra amylin NASH (GAN) mouse model. Cenicriviroc (CVC) used as a control (treatment group 6). Fat mass was calculated by ECHO MRI.

[7] = system: Gubra amylin NASH (GAN) mouse model; assay: Picrosirius red staining (PSR) of liver tissue, GAN mouse model; format: in vivo, mice
Method: as §1
FIG. 8 plots liver fibrosis levels based on percent PSR for treatment group 1 (wt), vehicle (treatment group 2), COT inhibitor (Compound A, treatment group 3), ACC inhibitor (Compound B, treatment group 5), and combination of Compound A and Compound B (treatment group 4) in the Gubra amylin NASH (GAN) mouse model. Cenicriviroc (CVC) used as a control (treatment group 6).

[8] = system: Gubra amylin NASH (GAN) mouse model; assay: Alpha-smooth muscle actin (aSMA) IHC on liver tissue, GAN mouse model; format: in vivo, mice; details: treatment group 3 (60 mg/kg BID) vs vehicle group 2, % area IHC
Method: as §1
FIG. 9 plots the […] (aSMA) levels from liver tissue of treatment group 1 (wt), vehicle (treatment group 2), COT inhibitor (Compound A, treatment group 3), ACC inhibitor (Compound B, treatment group 5), and combination of Compound A and Compound B (treatment group 4) in the Gubra amylin NASH (GAN) mouse model. Cenicriviroc (CVC) used as a control (treatment group 6). Alpha-smooth muscle actin (aSMA) levels were calculated from % area of alpha-SMA antibody staining on liver tissue (IHC).

[9] = system: Gubra amylin NASH (GAN) mouse model; assay: NAFLD activity score from H&E stained liver sections, GAN mouse model; format: in vivo, mice; details: 60 mg/kg BID
Method: The effect of COT inhibitor Compound A, ACC inhibitor Compound B, Cenicriviroc (CVC), and the combination of Compound A and Compound B in the Gubra amylin NASH mouse model (GAN) was determined. [table] FIG. 10 plots NAFLD activity score of Compound A (60 mg/kg BID), Compound B (10 mg/Kg QD), CVC (100 mg/Kg QD), and the combination Compound A and Compound B in from liver tissue the Gubra amylin NASH mouse model. CVC=Cenicriviroc, used as a control (100 mg/Kg QD). Individual components comprising the NAFLD score includes hepatocellular ballooning (FIG. 11A), lobular inflammation (FIG. 11B), and steatosis score (FIG. 11C). NAFLD activity score was determined by scoring of steatosis, inflammation, and hepatocyte ballooning from hematoxylin and eosin stained liver sections.

[10] = system: Gubra amylin NASH (GAN) mouse model; assay: Liver total cholesterol, GAN mouse model; format: in vivo, mice; details: treatment group 3 (60 mg/kg BID)
Method: as §1
FIG. 12 plots the liver total cholesterol levels for treatment group 1 (wt), vehicle (treatment group 2), COT inhibitor (Compound A, treatment group 3), ACC inhibitor (Compound B, treatment group 5), and combination of Compound A and Compound B (treatment group 4) in the Gubra amylin NASH (GAN) mouse model. Cenicriviroc (CVC) used as a control (treatment group 6). Total cholesterol levels were calculated from was measured using commercial kits (Roche Diagnostics) on the cobas c 501 autoanalyzer according to the manufacturer's instructions.

Structure (SMILES): COc1ccccc1[C@H](Cn1c(=O)n(C(C)(C)C(=O)O)c(=O)c2c(C)c(-c3ncco3)sc21)O[C@H]1CC[C@@H](O)CC1 [Compound B]
- PSR reduction ([1]; 10 mg/kg PO QD (treatment group 7), 42 days): 33%

Structure (SMILES): CCCCOCCOc1ccc(-c2ccc3c(c2)/C=C(/C(=O)Nc2ccc([S@@+]([O-])Cc4cncn4CCC)cc2)CCCN3CC(C)C)cc1 [CVC, Cenicriviroc, reference compound]
- liver cytokine levels (liver cytokine levels [2]; treatment group 6 (100 mg/Kg)): Changes in cytokine levels were not observed

Structure (SMILES): Cc1nc(F)ccc1[C@H](Nc1cc(Cl)c2ncc(C#N)c(NCC(C)(C)C)c2c1)c1cn(C2(C(F)F)CC2)nn1 [Compound A]
- fibrosis as measured by PSR, decrease relative to vehicle ([1]; 100 mg/Kg PO BID (treatment group 4, TPL2i high dose), 42 days): 55%
- fibrosis as measured by PSR, decrease relative to vehicle ([1]; 100 mg/Kg PO QD (treatment group 3, TPL2i low dose), 42 days): 41%
- liver fibrosis in PSR stained liver tissue (FIG. 1) compared to vehicle ([1]; treatment group 4 (100 mg/Kg BID) vs vehicle group 2): less liver fibrosis
- reduction in liver hydroxyproline compared to vehicle [3]: 38%
- liver IL-1b level (liver cytokine levels [4]): statistically significant decreases
- liver IL-10 level (liver cytokine levels [4]): statistically significant decreases
- liver IL-18 level (liver cytokine levels [4]): statistically significant decreases
- liver MIP1-α level (liver cytokine levels [4]): statistically significant decreases
- body weight decrease [5]: 16%
- fat mass decrease [6]: 31%
- fibrosis measured by PSR, decrease compared to vehicle ([7]; 60 mg/kg PO BID (treatment group 3) vs vehicle group 2): 46%
- PSR relative to Compound B alone ([7]; BID treatment): reduced PSR
- Alpha-smooth muscle actin (aSMA) levels, reduction compared to vehicle [8]: 41%
- NAFLD activity score at the end of the study compared to vehicle [9]: more animals had a lower NAFLD activity score
- Liver total cholesterol reduction [10]: 40%
- liver IL-1β level (liver cytokine levels [2]; treatment group 3 vs vehicle): statistically significant decreases
- liver KC/GRO level (liver cytokine levels [2]; treatment group 3 vs vehicle): statistically significant decreases
- liver MCP-1 level (liver cytokine levels [2]; treatment group 3 vs vehicle): statistically significant decreases
- liver TNF-α level (liver cytokine levels [2]; treatment group 3 vs vehicle): statistically significant decreases
